# Measured values reported in BindingDB's records for doi:10.1021/jm00025a010 (Eli Lilly, 1995).
# Biological target: T1, Gag-Pol polyprotein [588-1027]/[588-1147] (Human immunodeficiency virus 1, UniProt P04585)
# T1 construct: 588-1027; 588-1147
# Assay: HIV-1 RT Assay
# Conditions: not given
row,SMILES,IC50 [µM]
1,"S=C(NCCc1cccnc1)Nc1nccs1 [1-[2-(pyridin-3-yl)ethyl]-3-1,3-thiazol-2-ylthiourea]",> 10
2,"S=C(NCCc1ccncc1)Nc1nccs1 [1-[2-(pyridin-4-yl)ethyl]-3-1,3-thiazol-2-ylthiourea]",> 10
3,CCCCCCOc1cccc(CC/N=C(\S)Nc2nccs2)c1 [N-(2-(3-(Hexyloxy)phenethyl))-N -(2-thiazolyl)thiourea],> 10

# Same assay, conditions: pH 7.8; 37 °C
row,SMILES,IC50 [µM]
1,"O=C(O)c1csc(/N=C(\S)NCCc2ccccc2)n1 [2-{[(2-phenylethyl)carbamothioyl]amino}-1,3-thiazole-4-carboxylic acid]",> 10
2,"Cc1csc(NC(=S)NCCc2ccccc2)n1 [3-(4-methyl-1,3-thiazol-2-yl)-1-(2-phenylethyl)thiourea]",0.1
3,"CCc1csc(NC(=S)NCCc2c(F)cccc2F)n1 [N-(2-(2,6-Difluorophenyl)ethyl)-N -(2-(4-ethylthiazolyl))thiourea]",0.0055
4,S=C(NCCc1ccccc1)Nc1ncccc1Br [N-(2-Phenethyl)-N -(2-(3-bromopyridyl))thiourea],> 10
5,S=C(NCCc1ccccc1)Nc1cc[nH]n1 [N-(2-Phenethyl)-N -(3-pyrazolyl)thiourea],> 10
